Reference: patent US3975399A, “1,5-Disubstituted-2-pyrrolidinones, -3-pyrrolin-2-ones, and -4-pyrrolin-2-ones” (E. I. Du Pont de Nemours and Company, priority 1974, dated 1976)
≈ marks a conversion by molar mass, not a printed value.

Key:
[1] = system: PGE1-induced smooth muscle contractions; assay: Antagonism of PGE1-induced smooth muscle contractions; conditions: read-out: antagonizes PGE1-induced smooth muscle contractions, concentration for 50% inhibition
[2] = system: adjuvant-induced arthritis in rats; assay: Systemic antiinflammatory activity against adjuvant-induced arthritis in rats; format: in vivo, rat; conditions: intraperitoneal injection, 50 mg/kg
[3] = system: croton oil-induced inflammation of mouse ears; assay: Topical antiinflammatory activity against croton oil-induced inflammation of mouse ears; format: in vivo; conditions: 2-3 mg/ear
[4] = system: croton oil-induced inflammation of rat ears; assay: Topical antiinflammatory activity against croton oil-induced inflammation of rat ears; format: in vivo; conditions: 2-3 mg/ear
[5] = system: rat uterine smooth muscle; assay: Contraction of rat uterine smooth muscle
inflammation = assay: Topical and injectable antiinflammatory activity (general statement); format: in vivo
[6] = system: gastrin-induced gastric acid secretion; assay: Gastrin-induced gastric acid secretion; conditions: in vivo
[7] = system: histamine-induced bronchoconstriction; assay: Histamine-induced bronchoconstriction; conditions: in vivo
bronchial smooth muscle = conditions: cited from earlier work

| Compound | systemic antiinflammatory activity [2] | topical antiinflammatory activity [3] | topical antiinflammatory activity [4] | active as injectable antiinflammatory agent (inflammation) | active as topical antiinflammatory agent (inflammation) | further results |
| --- | --- | --- | --- | --- | --- | --- |
| CCCCCC(O)/C=C/C1CCC(=O)N1CCCCCCC(=O)OC(C)(C)C (stereo not drawn) [Compound 4, Tert-butyl 7-[2-Oxo-5-(3-hydroxy-1-oct-1-enyl)-1-pyrrolidinyl]heptanoate] | also active, though slightly less so | also active, though slightly less so | also active, though slightly less so | active | active | IC50 [1]: 10 mg/L (≈ 25.3 µM); antagonism of the contracting action of compound 5 ([5]; rat uterine smooth muscle, compound 5-induced contraction): is antagonized in this action |
| CCCCCC(O)/C=C/C1CCC(=O)N1CCCCCCC(=O)O (stereo not drawn) [Compound 5, 7-[2-Oxo-5-(3-hydroxy-1-oct-1-enyl)-1-pyrrolidinyl]-heptanoic Acid] | has shown activity | has shown activity | has shown activity | active | active | activity in cutting off gastrin-induced gastric acid secretion [6]: has shown activity; contracts rat uterine smooth muscle (concentration) ([5]; in the same way as PGE1): 50 ng/mL; activity as antagonist to histamine-induced bronchoconstriction [7]: has shown activity |
| CCCCC[C@H](O)/C=C/[C@H]1[C@H](O)CC(=O)[C@@H]1CCCCCCC(=O)O [PGE1, reference compound] | – | – | – | – | – | effect on the contracting action of PGF2α (bronchial smooth muscle): reverses or antagonizes; contraction of rat uterine smooth muscle (in words) ([5]; comparator for compound 5): contracts rat uterine smooth muscle |
| CCCCC[C@H](O)/C=C/[C@@H]1[C@@H](C/C=C\CCCC(=O)O)[C@@H](O)C[C@H]1O [PGF2 α] | – | – | – | – | – | contracting action (bronchial smooth muscle): contracting action |
